Results: paper PMC9358932 (Chemical Science, 2022)
Read-outs that look alike come from different tables or passages of the source. Each block holds one compound with its values, some of them ahead of it.

Key:
Cp149 dimer = experiment: Solution-state NMR chemical shift perturbations; format: binding, Hepatitis B virus (HBV); details: 4 molar equivalents of compound
[1] = target: T1, Cp149 reassembled capsids (Hepatitis B virus genotype D subtype ayw, UniProt P03146); experiment: biochemical; format: binding, Hepatitis B virus (HBV); details: ITC, 50 mM HEPES pH 7.5, 298 K
many organisms = details: cited from earlier work
[2] = target: T1, Cp149 reassembled capsids; details: ITC, TX100 value taken from previous data; cited from earlier work

T1 sequence (P03146 1-149): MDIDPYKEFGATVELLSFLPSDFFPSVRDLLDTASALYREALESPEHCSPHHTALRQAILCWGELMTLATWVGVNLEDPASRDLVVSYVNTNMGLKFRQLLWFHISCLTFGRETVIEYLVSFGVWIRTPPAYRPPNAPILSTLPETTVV

- CSPs / pocket binding in words (Cp149 dimer): smallest CSPs
Compound: 4-hexylaniline [Compound 2e]

- CSPs / pocket binding in words (Cp149 dimer): rather small CSPs
Compound: 4’-heptylacetophenone [Compound 2d]

Compound: CC(C)(C)CC(C)(C)c1ccc(O)cc1 [Compound 1c, 4-tert-octylphenol]
- ΔH [1]: -4.79 ± 0.14 kcal/mol
- Kd [1]: 7.5 ± 0.5 µM
- toxicity / environmental pollutant (many organisms): toxic to many organisms
- CSPs / pocket binding in words (Cp149 dimer): as high as those derived for TX100

Compound: CCCCCCc1ccc(O)cc1 [Compound 2a, 4-hexylphenol]
- ΔH [1]: -6.0 ± 0.6 kcal/mol
- Kd [1]: 13 ± 3 µM

Compound: CC(C)c1ccc(O)cc1 [Compound 4a, 4-isopropylphenol]
- ΔH [1]: -5 ± 3 kcal/mol
- Kd [1]: 18 ± 7 µM

Compound: CCCc1ccc(O)cc1 [Compound 4b, 4-propylphenol]
- ΔH [1]: -7 ± 4 kcal/mol
- Kd [1]: 14 ± 7 µM

Compound: CCC(C)(C)c1ccc(O)cc1 [Compound 4c, 4-tert-amylphenol]
- ΔH [1]: -12.7 ± 1.2 kcal/mol
- Kd [1]: 30 ± 4 µM

Compound: NP40 [Compound 6g]
- ΔH [1]: -3.41 ± 0.09 kcal/mol

Compound: Reduced Triton X-100 [Compound 1b]
- CSPs / pocket binding in words (Cp149 dimer): very small CSPs

Compound: Triton X-100 [Compound 1a]
- Kd [2]: 8.3 ± 0.5 µM
- ΔH [2]: -4.59 ± 0.05 kcal/mol
